# Reference: patent US5622967A, “Quinolone carboxamide Calpain inhibitors” (Sterling Winthrop, Inc., priority 1995, dated 1997)
# Target: T1, human calpain I (Homo sapiens, UniProt P07384)
# T1 construct: The isolation of calpain from human erythrocytes was similar to that described by Wang et al. (1988); from tissue; host or cells: human red blood cells (packed red cells, American Red Cross); partially purified on DEAE-Sephacel and phenyl-Sepharose CL-4B
# T1 sequence (P07384 1-714): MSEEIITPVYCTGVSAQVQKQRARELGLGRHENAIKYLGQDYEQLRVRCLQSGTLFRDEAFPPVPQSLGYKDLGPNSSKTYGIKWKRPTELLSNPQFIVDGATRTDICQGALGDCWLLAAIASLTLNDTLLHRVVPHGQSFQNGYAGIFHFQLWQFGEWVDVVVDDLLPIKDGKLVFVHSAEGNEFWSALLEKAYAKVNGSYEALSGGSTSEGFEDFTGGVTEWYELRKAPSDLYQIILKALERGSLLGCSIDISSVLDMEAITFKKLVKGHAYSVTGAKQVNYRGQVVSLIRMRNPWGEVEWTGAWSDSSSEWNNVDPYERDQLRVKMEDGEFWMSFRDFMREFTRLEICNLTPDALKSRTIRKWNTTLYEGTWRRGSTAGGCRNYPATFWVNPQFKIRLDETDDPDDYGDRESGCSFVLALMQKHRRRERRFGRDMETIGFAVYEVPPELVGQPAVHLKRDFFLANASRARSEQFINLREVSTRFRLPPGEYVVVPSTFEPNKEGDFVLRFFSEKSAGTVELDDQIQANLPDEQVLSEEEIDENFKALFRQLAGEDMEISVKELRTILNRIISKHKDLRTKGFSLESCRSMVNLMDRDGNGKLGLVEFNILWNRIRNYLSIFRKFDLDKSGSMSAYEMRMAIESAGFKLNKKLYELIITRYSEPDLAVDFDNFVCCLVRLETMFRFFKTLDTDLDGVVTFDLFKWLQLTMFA
# T1 sequence (P04632 1-268 partner): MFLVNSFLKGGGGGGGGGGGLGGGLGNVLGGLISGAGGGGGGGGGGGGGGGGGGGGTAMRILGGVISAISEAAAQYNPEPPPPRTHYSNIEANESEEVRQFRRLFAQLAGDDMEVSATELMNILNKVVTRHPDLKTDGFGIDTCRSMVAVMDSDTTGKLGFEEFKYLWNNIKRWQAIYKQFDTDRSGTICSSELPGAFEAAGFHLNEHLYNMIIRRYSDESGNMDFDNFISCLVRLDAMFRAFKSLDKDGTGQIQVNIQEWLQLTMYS
# Experiment: Calpain I Inhibition Assay (3H-acetyl casein degradation)
# Type: biochemical
# Conditions: human erythrocyte calpain I; 3H-acetyl Casein substrate; 25° C., 2 hours incubation; read-out: IC50 against human calpain I
# Experimental: Compounds of the present invention were tested for calpain I inhibition activity using the following assay method.
# Calpain I InhibitionAssay
# Isolation of Human erythrocyte Calpain I
# Human red blood cells were obtained from the Northeastern New York Chapter of the American Red Cross. The isolation of calpain from human erythrocytes was similar to that described by Wang et al. (1988). One unit of in-dated packed red cells was diluted with an equal volume of diluting/wash solution and centrifuged. The supernatant was removed and the procedure was repeated. The washed cells were pooled, lysed with 700 mL of lysing solution and centrifuged to remove cell debris. The membrane-free hemolysate was added to 500 mL DEAE-sephacel and the slurry was stirred gently at 4° C. for 1 hour.
# Batch elution was done using DEAE-sephacel wash solution to remove a large amount of unwanted protein, most of which was hemoglobin. The slurry was poured into a column connected in tandem to a phenyl-sepharose CL-4B column. Material eluted from the DEAE-sephacel was applied directly to the phenyl-sepharose CL-4B. The phenyl-sepharose CL-4B column was washed first with 75 mM NaCl and then with no salt. Calpain begins to disassociate from the […] with the 75 mM NaCl but the majority should adhere to the column until the salt is removed. Fractions were collected (20 mL), assayed for caseinolytic activity with and without calpastatin and pooled accordingly. The pooled fractions were concentrated using an Amicon stirred cell equipped with a YK-10 membrane. Calpain was stored at 4° C. with 10 mM EDTA and 5 mM 2-mercaptoethanol and is stable for at least 6 months.
# The tritated assay is a modification of that described by Gopalakrishna, R. and Barsky, S.H., Anal. Biochem., 148, 413,1985. All reagents, compound 25 ul, HEPES buffer 25 ul, CaCl2 50 ul, enzyme 50 ul, and ^3 H-acetyl Casein, were combined in 1 mL polystyrene titer plates. The plates were preincubated at 25° C. for 5 min with gentle shaking prior to the addition of substrate. The incubation was continued for an additional 2 hours and was terminated with the addition of 0.5 mL ice cold 5% TCA. Unlabled casein was added, samples were centrifuged and 0.5 mL of the supernatant was counted in 5 mL of Ready Protein liquid scintillation cocktail for 2 min. This assay measures ^3 H-acetyl Casein degradation as an endpoint for calpain activity.
row,SMILES,IC50 [nM]
1,"NC(=O)c1cn(-c2ccc(O)cc2)c2cc(-c3ccncc3)ccc2c1=O [Example 1, 1,4-Dihydro-1-(4-hydroxyphenyl)-4-oxo-7-(4-pyridinyl)=3-quinolinecarboxamide]",2000
2,"NC(=O)c1cn(-c2ccc(O)c(O)c2)c2cc(-c3ccncc3)ccc2c1=O [Example 2, 1,4,Dihydro-1-(3.4-dihydroxyphenyl)-4-oxo-7-(4-pyridinyl),3-quinolinecarboxamide]",7000
3,"NC(=O)c1cn(-c2ccc(O)c(Cl)c2)c2cc(-c3ccncc3)ccc2c1=O [Example 3, 1,4-Dihydro-1-(3-chloro-4-hydroxyphenyl)-4-oxo-7-(4-pyridinyl)-3-quinolinecarboxamide]",2000
4,"NC(=O)c1cn(-c2ccc(O)cc2F)c2cc(-c3ccncc3)ccc2c1=O [Example 4, 1,4-Dihydro-1-(2-fluoro-4-hydroxyphenyl)-4-oxo-7-(4-pyridinyl)-3-quinolinecarboxamide]",7400
5,"NC(=O)c1cn(-c2ccc(O)c(F)c2)c2cc(-c3ccncc3)ccc2c1=O [Example 5, 1,4-Dihydro-1-(3-fluoro-4-hydroxyphenyl)-4-oxo-7-(4-pyridinyl)-3-quinolinecarboxamide]",5000
6,"Cc1cc(O)ccc1-n1cc(C(N)=O)c(=O)c2ccc(-c3ccncc3)cc21 [Example 6, 1,4-Dihydro-1-(2-methyl-4-hydroxyphenyl)-4-oxo-7-(4-pyridinyl)-3-quinolinecarboxamide]",510
7,"NC(=O)c1cn(-c2ccc(O)cc2C(F)(F)F)c2cc(-c3ccncc3)ccc2c1=O [Example 7, 1,4-Dihydro-1-(2-trifluoromethyl-4-hydroxyphenyl)-4-oxo-7-(4-pyridinyl)-3-quinolinecarboxamide]",16000
8,"NC(=O)c1cn(-c2ccc(O)cc2Cl)c2cc(-c3ccncc3)ccc2c1=O [Example 8, 1,4-Dihydro-1-(2-chloro-4-hydroxyphenyl)-4-oxo-7-(4-pyridinyl)-3-quinolinecarboxamide]",600
9,"NC(=O)c1cn(-c2ccc(O)cc2Cl)c2cc(-c3cccnc3)ccc2c1=O [Example 9, 1,4,Dihydro-1-(2-chloro-4-hydroxyphenyl)-4-oxo-7-(3-pyridinyl)-3-quinolinecarboxamide]",12000
10,"NC(=O)c1cn(-c2ccc(O)cc2Cl)c2cc(-c3ccoc3)ccc2c1=O [Example 10, 1,4-Dihydro-1-(2-chloro-4-hydroxyphenyl)-4-oxo-7-(3-furyl)-3-quinolinecarboxamide]",1700
11,NC(=O)c1cn(-c2ccc(O)cc2Cl)c2cc(-c3ccncc3Cl)ccc2c1=O [Example 11],1700
12,"NC(=O)c1cn(-c2ccc(O)cc2Cl)c2cc(-c3ccnnc3)ccc2c1=O [Example 12, 1,4-Dihydro-1-(2-chloro-4-hydroxyphenyl)-4-oxo-7-(4-pyridazinyl)-3-quinolinecarboxamide]",1700
13,"NC(=O)c1cn(-c2ccc(O)cc2Cl)c2cc(-c3cc[nH]n3)ccc2c1=O [Example 13, 1,4-Dihydro-1-(2-chloro-4-hydroxyphenyl)-4-oxo-7-(3-pyrazolyl)-3-quinolinecarboxamide]",570
